Results on 15 compounds are retold here after US10730911B2, “Backbone-cyclized peptidomimetics with GLP-1R modulating activity” (POLYPHOR AG, priority 2015, dated 2020).

Where a SMILES comes first, the peptide text is derived from it. [ ]: non-standard residue; d: D form. The star is where a group is joined. Tyr(Ph) = N[C@@H](Cc1ccc(Oc2ccccc2)cc1)C(=O)O; His(π-Bn) = N[C@@H](Cc1cncn1Cc1ccccc1)C(=O)O; Phe(4-NH2) = Nc1ccc(C[C@H](N)C(=O)O)cc1; 3Pal = N[C@@H](Cc1cccnc1)C(=O)O; Aic = NC1(C(=O)O)Cc2ccccc2C1; Ac6c = NC1(C(=O)O)CCCCC1; Aib = CC(C)(N)C(=O)O; Bn = c1ccc(C*)cc1

The target of the test is T1, human glucagon-like peptide-1 receptor (GLP-1R) (Homo sapiens, UniProt P43220).
T1 construct: host or cells: CHO chAMPion cells
T1 sequence (P43220 24-463): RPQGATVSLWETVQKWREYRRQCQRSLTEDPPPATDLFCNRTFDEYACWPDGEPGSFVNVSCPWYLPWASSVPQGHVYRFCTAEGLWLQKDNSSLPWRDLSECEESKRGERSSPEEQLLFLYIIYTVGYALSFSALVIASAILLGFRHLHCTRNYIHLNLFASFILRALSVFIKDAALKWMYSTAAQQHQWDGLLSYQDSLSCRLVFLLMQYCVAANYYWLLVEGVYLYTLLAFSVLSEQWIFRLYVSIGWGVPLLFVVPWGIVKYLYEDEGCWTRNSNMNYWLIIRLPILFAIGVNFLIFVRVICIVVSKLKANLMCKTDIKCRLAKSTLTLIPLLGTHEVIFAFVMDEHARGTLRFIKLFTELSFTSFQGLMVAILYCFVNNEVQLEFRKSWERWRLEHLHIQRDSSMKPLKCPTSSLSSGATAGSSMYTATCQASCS
Briefly: Human GLP-1 receptor cell-based assay (flash luminescence, Target Activation phase). Particulars: CHO chAMPion cells stably co-expressing human GLP-1R, Photina and cAMP-activated calcium channel; agonist activity; normalization by forskolin at 10 μM; ^a) values from single experiment; read-out: EC50 (μM) Target Activation (TA). From the text:
CHO chAMPion cells (Axxam SpA; S. Corazza, Assay Drug Dev. Technol. 2009, 7, 304-307) stably co-expressing the human glucagon-like peptide-1 receptor (GLP-1R), the Ca^2+-sensitive photoprotein PHOTINA® (S. Bovolenta et al., J. Biomol. Screen. 2007, 12, 694-704) and a mutated cAMP-activated calcium ion channel (WO2004/083803 A2) were used to monitor GLP-1R signaling after stimulation with an agonist. Activation of the Gas-coupled GPCR GLP-1R was monitored by measuring the flash luminescence of the Ca^2+-sensitive photoprotein as reporter system with FLIPR^TETRA screening instrumentation (Molecular Devices) upgraded with an ICCD Camera (MDC). For data quality check and data analysis the Genedata SCREENER® software was used.
The reference agonist GLP-1 (glucagon-like peptide-1 amide fragment 7-36) and forskolin were purchased from Sigma (cat. G8147 and F6886, respectively) and prepared according to each ligand's specifications. All handling of ligands were done to ensure proper control throughout the experiments. The steps of the implemented workflow and data analysis are mainly as follows:
Stably transfected chAMPion cells are seeded 10000 c/w in 384 MTP in Dulbecco's MEM/nutrient mix F12 (BioWhittaker cat. BE04-687F/U1; 500 mL) supplemented with sodium pyruvate (BioWhittaker cat. BE13-115E; 5 mL of 100 mM solution), HEPES (BioWhittaker cat. BE17-737E; 6.5 mL of 1M solution), sodium bicarbonate (BioWhittaker cat. BE17-613E; 25 mL of 7.5% solution), fetal bovine serum (Euroclone cat. ECS 0180L; 50 mL), penicillin-streptomycin (BioWhittaker cat. DE17-602E; 5 mL of 100×solution), 1 mg/mL G418 (selection antibiotic for GLP-1R) and 200 μg/mL hygromycin in 25 μL/well for 24 hours. On the day of the experiment, plates are removed from the incubator, freed from the growth medium, equilibrated at room temperature for 1 h, loaded with 30 μl/well of Ca^2+ free Tyrode's buffer containing 20 μM coelentrazine and 500 μM IBMX, and incubated for 4 hours at room temperature.
All compounds were tested at 8 concentrations, starting from 50 μM in quadruplicate, intra-plate (dilution step 1:2.15) to determine EC50 values. After incubation, the volume in all the wells is flattened to 20 αL by aspiration with a CYBIO®-VARIO pipettor. First Injection (10 μL of test compounds in Ca^2+ free Tyrode's buffer, DMSO 0.5% v/v and BSA 0.01%; or 10 μL of reference compounds GLP-1 or forskolin in Ca′ free Tyrode's buffer, DMSO 0.5% v/v and BSA 0.01%) is performed by the FLIPR^TETRA and the kinetic response is optionally monitored over a period of 60 seconds. Incubation for 30 minutes at room temperature is followed by the Second Injection (Tyrode's buffer+10 mM CaCl2)) and the kinetic response is monitored over a period of 60 seconds.
The kinetic response is divided into two distinct phases: monitoring the kinetic response after the First Injection, termed Compound Addition (CA), and monitoring the kinetic response after the Second Injection of 10 mM CaCl2, termed Target Activation (TA). Agonist activity of compounds is evaluated in the Target Activation (TA) phase and it is based on normalization to TA activation by forskolin at 10 μM or GLP-1 at 3.16 nM (EC100)
A good correlation was observed between EC50, data normalized by forskolin and by GLP-1.
In general, EC50 refers to the concentration at which the effect is half-maximal. With `C[C@@H]1NC(=O)[C@H](Cc2ccc(O)cc2)NC(=O)[C@H](CCC(N)=O)NC(=O)[C@H](Cc2ccccc2)NC(=O)[C@H](Cc2ccccc2)NC(=O)C2(CCCCC2)NC(=O)[C@H]2CCCN2C(=O)[C@H](Cc2ccc(O)cc2)NC(=O)[C@H](CCC(=O)O)NC(=O)[C@H](Cc2c[nH]c3ccccc23)NC1=O` [Ex. 1, cyclo(-Phe-Phe-Gln-Tyr-Ala-Trp-Glu-Tyr-^DPro-Chx-)] (cyclo(FFQYAWEY[dP][Ac6c])), the EC50 turned out to be 0.09 ± 0.05 µM.
For `C[C@@H]1NC(=O)[C@H](Cc2ccc(O)cc2)NC(=O)[C@H](CCC(N)=O)NC(=O)[C@H](Cc2cncn2Cc2ccccc2)NC(=O)[C@H](Cc2ccccc2)NC(=O)C2(CCCCC2)NC(=O)[C@H]2CCCN2C(=O)[C@H](Cc2ccc(O)cc2)NC(=O)[C@H](CCC(=O)O)NC(=O)[C@H](Cc2c[nH]c3ccccc23)NC1=O` [Ex. 4, cyclo(-Phe-His(Bn)-Gln-Tyr-Ala-Trp-Glu-Tyr-^DPro-Chx-)] (cyclo(F[His(π-Bn)]QYAWEY[dP][Ac6c])) the value was 0.09 ± 0.02 µM; for `CC(C)C[C@@H]1NC(=O)[C@H](CC(C)C)NC(=O)[C@H](CCC(=O)O)NC(=O)[C@H](Cc2ccccc2)NC(=O)C2(CCCCC2)NC(=O)[C@H]2CCCN2C(=O)[C@H](Cc2ccccc2)NC(=O)[C@H](CCC(=O)O)NC(=O)[C@H](Cc2c[nH]c3ccccc23)NC(=O)[C@H](C)NC1=O` [Ex. 43, cyclo(-Phe-Glu-Leu-Leu-Ala-Trp-Glu-Phe-^DPro-Chx-)] (cyclo(FELLAWEF[dP][Ac6c])), 4.5 ± 2.6 µM.
For `C[C@@H]1NC(=O)[C@H](Cc2ccc(O)cc2)NC(=O)[C@H](CCC(N)=O)NC(=O)[C@H](Cc2cccnc2)NC(=O)[C@H](Cc2ccccc2)NC(=O)C2(CCCCC2)NC(=O)[C@H]2CCCN2C(=O)[C@H](Cc2ccc(O)cc2)NC(=O)[C@H](CCC(=O)O)NC(=O)[C@H](Cc2c[nH]c3ccccc23)NC1=O` [compound 2, cyclo(-Phe-3Pal-Gln-Tyr-Ala-Trp-Glu-Tyr-^DPro-Chx-)] (cyclo(F[3Pal]QYAWEY[dP][Ac6c])) the value was 0.28 ± 0.26 µM.
For `C[C@@H]1NC(=O)[C@H](Cc2ccc(O)cc2)NC(=O)[C@H](CCC(N)=O)NC(=O)[C@H](Cc2ccc(N)cc2)NC(=O)[C@H](Cc2ccccc2)NC(=O)C2(CCCCC2)NC(=O)[C@H]2CCCN2C(=O)[C@H](Cc2ccc(O)cc2)NC(=O)[C@H](CCC(=O)O)NC(=O)[C@H](Cc2c[nH]c3ccccc23)NC1=O` [compound 3, cyclo(-Phe-Phe(4NH2)-Gln-Tyr-Ala-Trp-Glu-Tyr-^DPro-Chx-)] (cyclo(F[Phe(4-NH2)]QYAWEY[dP][Ac6c])) the value was 0.18 ± 0.18 µM.
For the compound `C[C@@H]1NC(=O)[C@H](Cc2ccc(O)cc2)NC(=O)[C@H](CCC(N)=O)NC(=O)[C@H](Cc2ccc(OCc3ccccc3)cc2)NC(=O)[C@H](Cc2ccccc2)NC(=O)C2(CCCCC2)NC(=O)[C@H]2CCCN2C(=O)[C@H](Cc2ccc(O)cc2)NC(=O)[C@H](CCC(=O)O)NC(=O)[C@H](Cc2c[nH]c3ccccc23)NC1=O` [compound 5, cyclo(-Phe-Tyr(Bn)-Gln-Tyr-Ala-Trp-Glu-Tyr-^DPro-Chx-)] (cyclo(FY(Bn)QYAWEY[dP][Ac6c])), the 50% effective concentration (EC50) came to 0.15 ± 0.05 µM.
Next, `C[C@@H]1NC(=O)[C@H](Cc2ccc(O)cc2)NC(=O)[C@H](CCC(N)=O)NC(=O)[C@H](Cc2ccc(Oc3ccccc3)cc2)NC(=O)[C@H](Cc2ccccc2)NC(=O)C2(CCCCC2)NC(=O)[C@H]2CCCN2C(=O)[C@H](CCCNC(=N)N)NC(=O)[C@H](CCC(=O)O)NC(=O)[C@H](Cc2c[nH]c3ccccc23)NC1=O` [compound 6, cyclo(-Phe-Tyr(Ph)-Gln-Tyr-Ala-Trp-Glu-Arg-^DPro-Chx-)] (cyclo(F[Tyr(Ph)]QYAWER[dP][Ac6c])): 0.19 ± 0.12 µM.
Next, `C[C@@H]1NC(=O)[C@H](Cc2ccc(O)cc2)NC(=O)[C@H](CCC(N)=O)NC(=O)[C@H](Cc2ccc(Oc3ccccc3)cc2)NC(=O)[C@H](Cc2ccccc2)NC(=O)C2(CCCCC2)NC(=O)[C@H]2CCCN2C(=O)[C@H](Cc2ccc(O)cc2)NC(=O)[C@H](CCC(=O)O)NC(=O)[C@H](Cc2c[nH]c3ccccc23)NC1=O` [compound 7, cyclo(-Phe-Tyr(Ph)-Gln-Tyr-Ala-Trp-Glu-Tyr-^DPro-Chx-)] (cyclo(F[Tyr(Ph)]QYAWEY[dP][Ac6c])): 0.57 ± 0.58 µM; `COc1ccc(C[C@@H]2NC(=O)[C@H](CCC(N)=O)NC(=O)[C@H](Cc3c[nH]c4ccccc34)NC(=O)[C@H](Cc3ccccc3)NC(=O)C3(CCCCC3)NC(=O)[C@H]3CCCN3C(=O)[C@H](Cc3ccc(O)cc3)NC(=O)[C@H](CCC(=O)O)NC(=O)[C@H](Cc3c[nH]c4ccccc34)NC(=O)[C@H](C)NC2=O)cc1` [compound 8, cyclo(-Phe-Trp-Gln-Tyr(Me)-Ala-Trp-Glu-Tyr-^DPro-Chx-)] (cyclo(FWQY(Me)AWEY[dP][Ac6c])): 0.35 ± 0.3 µM.
For `COc1ccc(C[C@@H]2NC(=O)[C@H](CCC(=O)O)NC(=O)[C@H](Cc3c[nH]c4ccccc34)NC(=O)[C@H](C)NC(=O)[C@H](Cc3ccc(O)cc3)NC(=O)[C@H](CCC(N)=O)NC(=O)[C@H](Cc3c[nH]c4ccccc34)NC(=O)[C@H](Cc3ccccc3)NC(=O)C3(CCCCC3)NC(=O)[C@H]3CCCN3C2=O)cc1` [compound 9, cyclo(-Phe-Trp-Gln-Tyr-Ala-Trp-Glu-Tyr(Me)-^DPro-Chx-)] (cyclo(FWQYAWEY(Me)[dP][Ac6c])) the value was 0.8 ± 0.69 µM; for `C[C@@H]1NC(=O)[C@H](Cc2ccc(O)cc2)NC(=O)[C@H](CCC(N)=O)NC(=O)[C@H](Cc2ccccc2)NC(=O)[C@H](Cc2ccccc2)NC(=O)C2(CCCCC2)NC(=O)[C@H]2CCCN2C(=O)[C@H](CCCNC(=N)N)NC(=O)[C@H](CCC(=O)O)NC(=O)[C@H](Cc2c[nH]c3ccccc23)NC1=O` [compound 10, cyclo(-Phe-Phe-Gln-Tyr-Ala-Trp-Glu-Arg-^DPro-Chx-)] (cyclo(FFQYAWER[dP][Ac6c])), 0.39 ± 0.23 µM.
In the case of `C[C@@H]1NC(=O)[C@H](Cc2ccc(O)cc2)NC(=O)[C@H](CCC(N)=O)NC(=O)[C@H](Cc2ccc(Oc3ccccc3)cc2)NC(=O)[C@H](Cc2ccccc2)NC(=O)C(C)(C)NC(=O)[C@H]2CCCN2C(=O)[C@H](CCCNC(=N)N)NC(=O)[C@H](CCC(=O)O)NC(=O)[C@H](Cc2c[nH]c3ccccc23)NC1=O` [compound 11, cyclo(-Phe-Tyr(Ph)-Gln-Tyr-Ala-Trp-Glu-Arg-^DPro-Aib-)] (cyclo(F[Tyr(Ph)]QYAWER[dP][Aib])), the concentration giving a half-maximal response (EC50) turned out to be 0.54 ± 0.43 µM.
For `CC(C)C[C@@H]1NC(=O)[C@H](Cc2c[nH]c3ccccc23)NC(=O)[C@H](Cc2ccccc2)NC(=O)C2(CCCCC2)NC(=O)[C@H]2CCCN2C(=O)[C@H](Cc2ccc(O)cc2)NC(=O)[C@H](CCC(=O)O)NC(=O)[C@H](Cc2c[nH]c3ccccc23)NC(=O)[C@H](C)NC(=O)[C@H](Cc2ccc(O)cc2)NC1=O` [compound 12, cyclo(-Phe-Trp-Leu-Tyr-Ala-Trp-Glu-Tyr-^DPro-Chx-)] (cyclo(FWLYAWEY[dP][Ac6c])) the value was 0.48 ± 0.24 µM; for `CC(C)C[C@@H]1NC(=O)[C@H](CCC(=O)O)NC(=O)[C@H](Cc2ccccc2)NC(=O)C2(Cc3ccccc3C2)NC(=O)[C@H]2CCCN2C(=O)[C@H](Cc2ccc(O)cc2)NC(=O)[C@H](CCC(=O)O)NC(=O)[C@H](Cc2c[nH]c3ccccc23)NC(=O)[C@H](C)NC(=O)[C@H](Cc2ccc(O)cc2)NC1=O` [compound 13, cyclo(-Phe-Glu-Leu-Tyr-Ala-Trp-Glu-Tyr-^DPro-Ind-)] (cyclo(FELYAWEY[dP][Aic])), 0.66 ± 0.25 µM; for `C[C@@H]1NC(=O)[C@H](Cc2ccc(O)cc2)NC(=O)[C@H](CCC(N)=O)NC(=O)[C@H](Cc2ccc(O)cc2)NC(=O)[C@H](Cc2ccccc2)NC(=O)C2(CCCCC2)NC(=O)[C@H]2CCCN2C(=O)[C@H](Cc2ccc(O)cc2)NC(=O)[C@H](CCC(=O)O)NC(=O)[C@H](Cc2c[nH]c3ccccc23)NC1=O` [compound 14, cyclo(-Phe-Tyr-Gln-Tyr-Ala-Trp-Glu-Tyr-^DPro-Chx-)] (cyclo(FYQYAWEY[dP][Ac6c])), 0.72 ± 0.43 µM.
